Measurements as given in patent US10517952B2, “Nucleophile-triggered degradable materials and methods of making and using the same” (GEORGIA TECH RESEARCH CORPORATION, priority 2014, dated 2019).
Values joined by “and” are separate entries in the source; they are usually repeats but may differ in a detail not shown here. Equal entries are not always repeated.

Tests used:
[1] = Release of entrained cargo from PEG-OND hydrogels; assay type: physicochemical
Experimental: Finally, the diffusion of entrained, rather than covalently anchored, cargos of different sizes out of OND hydrogels of differing stabilities was measured. This was done with a small molecule (carboxyfluorescein), a globular protein (fluorescein-labeled bovine serum albumin, BSA), and a 30-nm protein nanoparticle (fluorescein-labeled bacteriophage Qb virus-like particle). The first and last species have no available thiol groups; the second was reacted with N-ethylmaleimide before gelation to cap cysteine-34 and avoid tethering of the protein cargo to the hydrogel network. Hydrogels derived from 4-PEG-SH and 7a, 7b, or 8 were formed in the presence of each cargo; the speed of this reaction made it highly unlikely that OND connectors were addressed by protein amine groups under these conditions.
Three sets of three 60 μL gels were prepared using linkers 7a, 7b, and 8, respectively. The first set contained 1 mM small molecule probe 5/6-carboxyfluorescein, while the second and third sets contained FITC labeled BSA and Qβ virus-like particle, respectively. The gels were allowed to set for 30 minutes at room temperature before dilution with 3 mL of pH 7.4 100 mM phosphate buffered saline. The samples were incubated at 37° C. and the increase in absorbance of the supernatant at 497 nm was monitored. The fraction of released dye was plotted against incubation time. Least-squares kinetic fitting to a first-order rate law was performed for release profiles obtained for carboxyfluorescein cargo, and for the release of BSA from non-degradable PEG-EONB (8) hydrogel (Solver plug-in, Microsoft Excel).

[2] = Residual hydrogel thiol content with fluorogenic OND probe S-6; assay type: physicochemical; details: for Residual thiols in the gel network, average: average of both sets of gels from linkers 7a and 8, % of input macromer thiol content; for Gel Fraction % Residual Thiol: residual thiol in the gel, % of initial thiol content of input macromer; for Sol Fraction % Residual Thiol: thiol in supernatant, % of input thiol, swelled 18 hours at 4° C., pH 7.4 PBS, probe S-6
Experimental: The thiol content of cured hydrogels was determined by swelling gels in the presence of a small fluorogenic OND S-6, which we have previously described in our lab.
This probe reacts with thiols to produce a fluorescent adduct (FIG. 14A). […] Thus, the concentration of reagent S-6 in solution can be determined by quenching with thiol. Similarly, reagent S-6 can be used to quantify thiol in solution.
Based on cargo diffusion studies (see section X of this document), we expected that probe S-6 should easily permeate the hydrogel network under swelling conditions and react with accessible residual thiols present in the gel network. In order to test this hypothesis, 60 μL hydrogels were freshly prepared from 4-PEG-SH macromer and either linkers 8 or 7a as described in section III of this document. After curing for 20 minutes at room temperature, 3 mL of pH 7.4 0.1M PBS buffer containing 200 μM probe S-6 was added, and the gel was swelled at 4° C. for 18 hours. To account for hydrolytic degradation of our thiol probe during incubation, a sample was prepared with S-6 in buffer alone (lacking 4-PEG-SH and bis-OND linkers). After swelling, the gels were observed under long-wave ultraviolet light to reveal strongly fluorescent gels and weakly fluorescent supernatants (FIG. 15). […] Presumably the fluorescence in the supernatant of samples containing gels is due to soluble fraction of 4-PEG-SH macromer and oligomers not incorporated into the gel network.
In order to calculate the amount of residual thiol present in the soluble fraction, aliquots of the supernatant were removed and fluorescence was measured. Thiol content of the soluble fraction was determined by interpolation using the standard curve shown in FIG. 14 after accounting for fluorescence due to hydrolytic degradation. […] This amount corresponds well with the soluble fraction (soluble fraction=1−gel fraction) determined from swelling experiments (see Table 1 of main text). To determine residual thiol content present in gels, aliquots of the supernatant were quenched with a large excess (10 mM) of N-acetyl cysteine and the increase in fluorescence was measured to determine the amount of unreacted S-6 remaining in the supernatant. Accounting for the amount of probe already consumed by reaction with soluble fraction thiols and by hydrolytic degradation, the amount of residual thiol accessible for post-modification present in the gel was calculated as 13.4±1.4% and 10.8±2.4% of the initial thiol content of input macromer (average of 11.8±3.3 for both sets of gels prepared from linkers 7a and 8).

[3] = Calculation of hydrogel mesh size from equilibrium swelling data; assay type: physicochemical; details: for Average mesh size: average for equilibrium swelled hydrogels from linkers 7a, 7b and 8; for Calculated mesh size: equilibrium-swollen gels
Experimental: Using the calculated molecular weight between crosslinks, Mc, and the method previously described by Canal and Peppas, the hydrogel mesh size was calculated. First, the root-mean-square end-to-end distance of the polymer chains in the network, (r0^2)^1/2, was calculated as follows: (r0^2)^1/2=lCn^1/2n^1/2 (Equation S10) where l is the average bond length in the polymer (0.146 nm for PEG) and Cn is the characteristic ratio of the polymer (4.0 for PEG). The average number of bonds between crosslinks, n is calculated using the following equation:
[formula] where Mc is the average molecular weight between crosslinks, calculated as described in the previous section, and Mr is the molecular weight of the repeating unit for the PEG macromer (44 g/mol). Finally, the mesh size, ξ, is calculated using the following relationship: ξ=v2,s^−1/3(r0^2)^1/2 (Equation S12) where v2, is the partial volume of polymer in the equilibrium swollen hydrogel, and is calculated using the experimentally determined equilibrium weight swelling ratios.

| Compound | Fraction of BSA tethered to the network / not freely diffusing from the gel ([1]; FITC-BSA with ˜0.4 accessible thiols per protein) [%] | Release of entrained BSA from the gel compared with more stable matrices ([1]; N-ethylmaleimide-capped FITC-BSA, pH 7.4, 37° C.) | Residual thiols in the gel network, average [2] [%] | Gel Fraction % Residual Thiol [2] | Sol Fraction % Residual Thiol [2] [%] | melting point [°C] | Average mesh size [3] [nm] | Calculated mesh size [3] [nm] | Release of entrained Qβ virus-like particles from the gel ([1]; pH 7.4, 37° C.) |
| --- | --- | --- | --- | --- | --- | --- | --- | --- | --- |
| COC(=O)C1=C(C(=O)OC)C2(CNC(=O)CCCC(=O)NCC34C=CC(O3)C(C(=O)OC)=C4C(=O)OC)C=CC1O2 [Linker 7a, Tetramethyl 1,1′-((glutaroylbis(azanediyl))bis(methylene))bis(7-oxabicyclo[2.2.1]hepta-2,5-diene-2,3-dicarboxylate)] | ~20 | markedly faster | 11.8±3.3 | 10.8±2.4% | 8.1±3.2 | 163 to 167 | 14.0±1.0 | 15.2 ± 0.9 |  |
| COC(=O)C1=C(C(=O)OC)C2(CNC(=O)CCCC(=O)NCC34OC(C(C(=O)OC)=C3C(=O)OC)C3OC34)OC1C1OC12 (stereo not drawn) [Linker 8, Tetramethyl 1,1′-((glutaroylbis(azanediyl))bis(methylene))bis(3,8-dioxatricyclo[3.2.1.0^2,4]oct-6-ene-6,7-dicarboxylate)] |  |  | 11.8±3.3 | 13.4±1.4% and 12.8 ± 2.2% | 2.1±0.4 | 125 to 130 | 14.0±1.0 | 14.0 ± 0.9 | not released |
